In patent US9617517B2, “Small chemical compound which promotes induction of differentiation of stem cells into insulin-producing cells and method for inducing differentiation of stem cells into insulin-producing cells using said small chemical compound” (NATIONAL UNIVERSITY CORPORATION KUMAMOTO UNIVERSITY, priority 2011, dated 2017):
Structures can show the parent of a compound that is named as a salt.

Tested on: mouse ES cells (Pdx1/GFP)
Experiment: Differentiation of mouse ES cells into insulin positive cells on nano fiber plate, immunostaining and quantitative image analysis
Format: cell-based
Details: for number of Pdx1/GFP positive cells / number of insulin positive cells: 0 to 10 μM added from d11, counted d17 (FIG. 14); for hit confirmed by dose-responsiveness: 0.08 to 10 μM, SK7 ES cells; for effect on differentiation into insulin-expressing cells: compound added d11-d17, insulin staining d17 (FIG. 4, 5, 7, 8, 10); for Relative value of Ins positive cells: number of cells with no compound = 1, concentration of each compound (μM), added d11, d13, d15, analysed d17; for induction of the differentiation of stem cells into insulin-producing cells: similar separate experiments
Excerpt: Two ES cell lines, one expressing green fluorescent protein (GFP) under the control of insulin 1 promoter, designed ING (Higuchi Y., Shiraki N., Yamane K, Qin Z., Mochitate K., Araki K., Senokuchi K., Yamagata K., Hara M., Kume K., and Kume S., Synthesized basement membranes direct the differentiation of mouse embryonic stem cells into pancreatic lineages. J. Cell Science, 123, 2733-2742, 2010), and the other one expressing GFP under the control of Pdx1 promoter, designated SK7 (Shiraki N, Yoshida T, Araki K, et al. Guided differentiation of embryonic stem cells into Pdx1-expressing regional-specific definitive endoderm. Stem Cells. 2008; 26:874-885), were used. Both cell lines were maintained on mouse embryonic fibroblast (MEF) feeders in Glasgow minimum essential medium (Invitrogen) containing 1000 units/ml leukemia inhibitory factor (LIF; Chemicon), 15% Knocked-out Serum Replacement (KSR; Gibco), 1% fetal bovine serum (FBS; Hyclone), 100 μM nonessential amino acids (NEAA; Invitrogen), 2 mM L-glutamine (L-Gln; Invitrogen), 1 mM sodium pyruvate (Invitrogen), 50 units/ml penicillin and 50 μg/ml streptomycin (PS; Invitrogen) and 100 μM β-mercaptoethanol (β-ME; Sigma), as ES maintenance medium.
For the differentiation studies, ES cells were plated at 5,000 cells per well in Corning 96 well plate with Ultra-Web Synthetic Polyamine Surface (#3873XX1, Corning Coster, Cambridge, Miss.), and cultured. The cells were cultured in Dulbecco's Modified Eagle Medium (DMEM: Invitrogen, Glasgow, UK) containing 4500 mg/L glucose, supplemented with NEAA, L-Gln, PS, β-ME, 10 μg/ml insulin (Sigma-Aldrich), 5.5 μg/ml transferrin (Sigma-Aldrich), 6.7 pg/ml selenium (Sigma-Aldrich), and 0.25% Albmax (Invitrogen), 10 ng/mL recombinant human activin-A (R&D Systems, Minneapolis, Minn.), 5 ng/mL; recombinant human bFGF for 7 days (d1-d7) (I of FIG. 1). And then, the medium was changed to RPMI 1640 medium (Invitrogen) containing 2000 mg/L glucose (Sigma, St Louis, Mo.), 1 μM Retinoic acid (Sigma-Aldrich), 50 ng/ml Human Recombinant Fibroblast Growth Factor-10 (Peprotech, Rocky Hill, N.J.), B27 SUPPLEMENT (Invitrogen) and 0.25 μM 3-Keto-N-(aminoethyl-aminocaproyl-dihydrocinnamoyl) cyclopamine Shh Signaling Antagonist II (Calbiochem, San Diego, Calif.) on d7 to d11 (II of FIG. 1). Finally, the medium was switched to DMEM containing 1000 mg/L glucose supplemented with NEAA, L-Gln, PS, β-ME, 10 μg/ml insulin (Sigma-Aldrich), 5.5 μg/ml transferrin (Sigma-Aldrich), 6.7 pg/ml selenium (Sigma-Aldrich), 0.25% Albmax (Invitrogen) and 10 mM nicotinamide (Sigma-Aldrich) on d11 to d17 (III of FIG. 1). Media were replaced every 2 days with fresh medium and growth factors until d17.
All tested small chemical compounds were solved in dimethyl sulfoxide (DMSO) at given concentration. Compounds were added on d11, d13 and d15 in a medium. Final concentration of DMSO was adjusted at 1.0% in all experiments for compounds.
After 17 days cell culture, cultured ES cells were fixed in 4% paraformaldehyde in PBS for 30 min at room temperature, and rinsed several times with PBS. Then, cells were incubated in the added diluted primary antibody in 20% Blocking One (Nacalai tesque, Tokyo, Japan) in PEST (0.1% Tween-20 in PBS) in a humidified chamber for overnight at 4° C. After washing the cells in PBST, cells were incubated with the secondary antibody in 20% Blocking One for 2 hr at room temperature in dark. After washing off the secondary antibody in PBST, cells were counterstained with […] (DAPI) (Roche Diagnostics). The following antibodies were used as First antibodies: Rabbit anti-GFP (MBL International Corp., Woburn, Mass.), Mouse anti-Insulin (Sigma). The following antibodies were used as Secondary antibodies: Alexa 568-conjugated, Alexa 488-conjugated antibodies (Invitrogen) Cells were counterstained with DAPI (Roche Diagnotics, Basel, Switzerland).

SMILES | effect on differentiation into insulin-expressing cells | induction of the differentiation of stem cells into insulin-producing cells | also measured
NCCc1c[nH]c2ccc(O)cc12 [serotonin] | – | – | number of Pdx1/GFP positive cells: did not vary; number of insulin positive cells: decreased in a concentration-dependent manner
CN1CC[C@@]2(C)c3cc(O)ccc3N(C)[C@@H]12.O=C(O)/C=C/C(=O)O [Eseroline fumarate salt, eseroline fumarate] | increased insulin positive cells | – | hit confirmed by dose-responsiveness: positive; Relative value of Ins positive cells: 1.8
CCN(CC)CCCC(C)Nc1c2ccc(Cl)cc2nc2ccc(OC)cc12 (stereo not shown) [quinacrine dihydrochloride dihydrate] | – | induce the differentiation of stem cells into insulin-producing cells | –
CN/C(=N/CCSCc1nc[nH]c1C)NC#N [cimetidine] | – | induce the differentiation of stem cells into insulin-producing cells | –
Cc1nccn1CC1CCc2c(c3ccccc3n2C)C1=O (stereo not shown) [ondansetron hydrochloride] | – | induce the differentiation of stem cells into insulin-producing cells | –
O=C(CCCN1CCN(c2ccccn2)CC1)c1ccc(F)cc1 [azaperone] | – | induce the differentiation of stem cells into insulin-producing cells | –
C[C@](N)(Cc1ccc(O)cc1)C(=O)O [alpha- Methyltyrosine, α-methyltyrosine] | the same effect | – | –
C[C@@](Cc1ccc(O)c(O)c1)(NN)C(=O)O [Carbidopa, carbidopa] | the same effect | – | –
CN(C)CCCSC(=N)N [dimaprit dihydrochloride] | – | induce the differentiation of stem cells into insulin-producing cells | –
Nc1nc2ncc(CNc3ccc(C(=O)N[C@@H](CCC(=O)O)C(=O)O)cc3)nc2c(=O)[nH]1 [Folic acid, folic acid] | – | – | hit confirmed by dose-responsiveness: positive
NCCc1ccc(O)c(O)c1 [dopamine] | suppressed the differentiation of pancreas in a dose-dependent manner | – | effect on insulin positive cells (0.1 μM dopamine (FIG. 11B)): decreased insulin positive cells; effect on enhancement effect of dBu-cAMP (0.1 μM dopamine with 0.6 μM dBu-cAMP (FIG. 11B)): scarcely influenced; effect on increase of insulin-expressing cells mediated by reserpine (0.1 μM dopamine with 0.6 μM reserpine (FIG. 11B)): inhibited completely; concentration inhibiting completely the differentiation of β cells (FIG. 8): ≥ 100 nM
Cc1c2ccncc2c(C)c2c1[nH]c1ccccc12 [ellipticine] | – | – | hit confirmed by dose-responsiveness: positive
C[N+](C)(C)CCOC(N)=O [Carbachol, carbachol] | increased insulin positive cells | – | –
C[C@@H]1C(=O)O[C@H]2C[C@@]34[C@H]5C[C@@H](C(C)(C)C)[C@]36[C@@H](OC(=O)[C@@H]6O)O[C@@]4(C(=O)O5)[C@]21O [ginkgolide A] | – | induce the differentiation of stem cells into insulin-producing cells | –
N[C@@H](Cc1c[nH]c2ccc(O)cc12)C(=O)O [5HTP, 5-hydroxytryptophan] | the same effect | – | –
C#CCN(C)Cc1ccccc1 [Pargyline, pargyline hydrochloride] | – | induce the differentiation of stem cells into insulin-producing cells | effect on differentiation of Pdx1 positive cells into insulin-producing cells (1 μM Pargyline (FIG. 6, 7)): disturbs the differentiation of Pdx1 positive cells into insulin-producing cells; effect on Pdx1 positive pancreatic precursor cells (reserpine 0.63 μM, Pargyline 1 μM (FIG. 6, 7)): without influencing the ratio of Pdx1-expressing cells; effect of 1 μM Pargyline on differentiation in presence of reserpine (with 0.63 μM reserpine): deactivated
NCCc1c[nH]cn1 [histamine] | – | – | number of Pdx1/GFP positive cells: did not vary; number of insulin positive cells: decreased in a concentration-dependent manner
CO[C@@H]1[C@@H]2OP(=O)(O)OC[C@H]2O[C@H]1n1c(Sc2ccc(Cl)cc2)nc2c(N)ncnc21 [8-CPT-2-Me-cAMP] | – | – | Relative value of Ins positive cells: 3.7
OCCOCCN1CCN(C(c2ccccc2)c2ccc(Cl)cc2)CC1 (stereo not shown) [hydroxyzine dihydrochloride] | – | induce the differentiation of stem cells into insulin-producing cells | –
COc1cc2c(cc1OC)-c1cc3ccc(OC)c(OC)c3c[n+]1CC2 [Palmatine chloride, palmatine chloride] | increased insulin positive cells | – | hit confirmed by dose-responsiveness: positive
COCCCC/C(=N\OCCN)c1ccc(C(F)(F)F)cc1 [fluvoxamine maleate] | – | induce the differentiation of stem cells into insulin-producing cells | –
CN(C)CCC(c1ccc(Cl)cc1)c1ccccn1 (stereo not shown) [chlorpheniramine maleate] | – | induce the differentiation of stem cells into insulin-producing cells | –
